This passage reports EC50 and Emax results from patent US20260176320A1, “MODULATORS OF G-PROTEIN COUPLED RECEPTORS” (priority 2018, published 2026).

Type in all cases: cell-based
Test [1] deals with T1, GLP-1R (Homo sapiens, UniProt P43220). Nature of the test: PathHunter β-arrestin assay. The procedure, abridged:
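β-Arrestin recruitment measured by PathHunter enzyme-fragment luminescence, read after 3 h dark incubation at room temperature with detection solution. Beforehand, agonist in a 22-point 2-fold series was applied in duplicate for 90 min at 37 °C to 5,000 cells/well in BSA-containing (0.2%) medium.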

In test [2] the target is T1, GLP-1R. Nature of the test: HitHunter cAMP assay (GLP-1R). As to conditions: cAMP; for Emax: read-out: (Emax) GLP-1R. The procedure, abridged:
(§1)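 cAMP accumulation read by luminescent HitHunter immunocompetition after 30 min room-temperature agonist stimulation. Agonists tested as 22-point twofold dilutions, in duplicate, on 10,000 cells/well in HBSS containing 625 μM IBMX, 10 mM HEPES and 0.2% BSA.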
(In general: Changes in cAMP serve as a functional read-out for many G protein-coupled receptors.)

Test [3] concerns the target T2, GIP-R (Homo sapiens, UniProt P48546).
T2 sequence (P48546 22-466): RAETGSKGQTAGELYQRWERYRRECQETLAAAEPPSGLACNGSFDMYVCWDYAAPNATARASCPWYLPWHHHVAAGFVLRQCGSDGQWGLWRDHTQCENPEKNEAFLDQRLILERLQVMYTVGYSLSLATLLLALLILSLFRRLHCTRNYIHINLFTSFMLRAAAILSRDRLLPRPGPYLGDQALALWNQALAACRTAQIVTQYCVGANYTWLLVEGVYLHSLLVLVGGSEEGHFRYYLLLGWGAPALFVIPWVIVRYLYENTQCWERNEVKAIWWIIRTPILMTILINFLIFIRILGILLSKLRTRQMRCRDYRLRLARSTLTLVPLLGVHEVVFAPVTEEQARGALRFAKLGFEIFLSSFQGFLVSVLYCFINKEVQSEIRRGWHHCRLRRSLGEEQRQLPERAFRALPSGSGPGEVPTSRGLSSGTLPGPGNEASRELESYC
Nature of the test: HitHunter cAMP assay (GIP-R). To be noted: cAMP; for Emax: read-out: (Emax) GIP-R. The procedure, abridged:
as §1

[4] abbreviates: PathHunter β-arrestin assay, read-out: β-arrestin activity EC50.
Setting [5] is: Table 3, read-out: EC50 GLP-1R/nM.
[6] abbreviates: Table 3A, read-out: EC50 GLP-1R/nM.
Where [7] appears, read: Table 3, read-out: EC50 GIP-R/nM.
The mark [8] stands for this setting: Table 3A, read-out: EC50 GIP-R/nM.

Usually Emax stands for the maximal effect, on the per cent scale that the assay sets.

Read-outs that look alike come from different tables or passages of the source. Square brackets hold non-standard residues; d marks the D form. Peptide text beside a SMILES is read from it. * marks the point of attachment. X1 = O=C(CSCC(=O)*)NCCN1C(=O)c2ccccc2C1=O; Aib = CC(C)(N)C(=O)O Some results are limits rather than exact numbers.

T1 sequence (P43220 24-463): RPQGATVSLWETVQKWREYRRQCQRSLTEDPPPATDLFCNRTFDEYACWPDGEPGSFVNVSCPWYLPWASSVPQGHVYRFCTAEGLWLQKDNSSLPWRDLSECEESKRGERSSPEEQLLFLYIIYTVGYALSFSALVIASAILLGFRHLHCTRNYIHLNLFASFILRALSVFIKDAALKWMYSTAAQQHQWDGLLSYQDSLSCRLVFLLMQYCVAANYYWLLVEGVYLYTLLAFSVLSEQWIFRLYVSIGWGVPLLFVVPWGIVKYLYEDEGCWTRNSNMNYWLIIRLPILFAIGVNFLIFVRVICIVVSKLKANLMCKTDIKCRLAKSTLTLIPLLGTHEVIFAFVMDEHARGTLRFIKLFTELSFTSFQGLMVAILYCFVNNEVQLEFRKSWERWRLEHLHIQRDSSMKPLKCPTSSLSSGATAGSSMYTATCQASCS

For `CC[C@H](C)[C@H](NC(=O)[C@H](CO)NC(=O)[C@H](Cc1ccc(O)cc1)NC(=O)[C@H](CC(=O)O)NC(=O)[C@H](CO)NC(=O)[C@@H](NC(=O)[C@H](Cc1ccccc1)NC(=O)[C@@H](NC(=O)CNC(=O)[C@H](CCC(=O)O)NC(=O)CSCC(=O)NCCN1C(=O)CSC1=O)[C@@H](C)O)[C@@H](C)O)C(=O)N[C@@H](Cc1ccc(O)cc1)C(=O)N[C@@H](CC(C)C)C(=O)N[C@@H](CC(=O)O)C(=O)N[C@@H](CCCCN)C(=O)N[C@@H](CCC(N)=O)C(=O)N[C@@H](C)C(=O)N[C@@H](C)C(=O)NC(C)(C)C(=O)N[C@@H](CCC(=O)O)C(=O)N[C@@H](Cc1ccccc1)C(=O)N[C@H](C(=O)N[C@@H](CC(N)=O)C(=O)N[C@@H](Cc1c[nH]c2ccccc12)C(=O)N[C@@H](CC(C)C)C(=O)N[C@@H](CC(C)C)C(=O)N[C@@H](C)C(=O)NCC(=O)NCC(=O)N1CCC[C@H]1C(=O)N[C@@H](CO)C(=O)N[C@@H](CO)C(=O)NCC(=O)N[C@@H](C)C(=O)N1CCC[C@H]1C(=O)N1CCC[C@H]1C(=O)N1CCC[C@H]1C(=O)N[C@@H](CO)C(=O)N[C@@H](CCCCN)C(N)=O)C(C)C` [Compound 196], the EC50 was greater than 1000 nM in test [1] (setting [4]); 0.1 to 10 nM in test [2] (setting [5]); 0.1 to 10 nM in test [2] (setting [6]); 1 to 100 nM in test [3] (setting [7]); 1 to 100 nM in test [3] (setting [8]). The Emax in test [2] (Table 3) fell in the range of 93 to 104%; in test [2] (Table 3A), 93 to 104%; in test [3] (Table 3), 41 to 86%; in test [3] (Table 3A) it was 41 to 86%.

Consider `CC[C@H](C)[C@H](NC(=O)[C@H](CO)NC(=O)[C@H](Cc1ccc(O)cc1)NC(=O)[C@H](CC(=O)O)NC(=O)[C@H](CO)NC(=O)[C@@H](NC(=O)[C@H](Cc1ccccc1)NC(=O)[C@@H](NC(=O)CNC(=O)[C@H](CCC(=O)O)NC(=O)CSCC(=O)NCCN1C(=O)c2ccccc2C1=O)[C@@H](C)O)[C@@H](C)O)C(=O)N[C@@H](Cc1ccc(O)cc1)C(=O)N[C@@H](CC(C)C)C(=O)N[C@@H](CC(=O)O)C(=O)N[C@@H](CCCCN)C(=O)N[C@@H](CCC(N)=O)C(=O)N[C@@H](C)C(=O)N[C@@H](C)C(=O)NC(C)(C)C(=O)N[C@@H](CCC(=O)O)C(=O)N[C@@H](Cc1ccccc1)C(=O)N[C@H](C(=O)N[C@@H](CC(N)=O)C(=O)N[C@@H](Cc1c[nH]c2ccccc12)C(=O)N[C@@H](CC(C)C)C(=O)N[C@@H](CC(C)C)C(=O)N[C@@H](C)C(=O)NCC(=O)NCC(=O)N1CCC[C@H]1C(=O)N[C@@H](CO)C(=O)N[C@@H](CO)C(=O)NCC(=O)N[C@@H](C)C(=O)N1CCC[C@H]1C(=O)N1CCC[C@H]1C(=O)N1CCC[C@H]1C(=O)N[C@@H](CO)C(=O)N[C@@H](CCCCN)C(N)=O)[C@@H](C)CC` [Compound 144] (X1-EGTFTSDYSIYLDKQAA[Aib]EFINWLLAGGPSSGAPPPSK-NH2), for which the EC50 was greater than 1000 nM in test [1]; 1 to 10 nM in test [2] (EC50 GLP-1R/nM, Table 3); 1 to 10 nM in test [2] (EC50 GLP-1R/nM, Table 3A); less than 0.1 nM in test [3] (EC50 GIP-R/nM, Table 3); less than 0.1 nM in test [3] (EC50 GIP-R/nM, Table 3A). The Emax in test [2] (Table 3) was in the range of 93 to 119%; in test [2] (Table 3A), 93 to 119%; in test [3] (Table 3) it was 127 to 140%; in test [3] (Table 3A), 127 to 140%.

Consider `CC[C@H](C)[C@H](NC(=O)[C@H](CO)NC(=O)[C@H](Cc1ccc(O)cc1)NC(=O)[C@H](CC(=O)O)NC(=O)[C@H](CO)NC(=O)[C@@H](NC(=O)[C@H](Cc1ccccc1)NC(=O)[C@@H](NC(=O)CNC(=O)[C@H](CCC(=O)O)NC(=O)C(C)(C)NC(=O)CCN1C(=O)CSC1=O)[C@@H](C)O)[C@@H](C)O)C(=O)N[C@@H](Cc1ccc(O)cc1)C(=O)N[C@@H](CC(C)C)C(=O)N[C@@H](CC(=O)O)C(=O)N[C@@H](CCCCN)C(=O)N[C@@H](CCC(N)=O)C(=O)N[C@@H](C)C(=O)N[C@@H](C)C(=O)NC(C)(C)C(=O)N[C@@H](CCC(=O)O)C(=O)N[C@@H](Cc1ccccc1)C(=O)N[C@H](C(=O)N[C@@H](CC(N)=O)C(=O)N[C@@H](Cc1c[nH]c2ccccc12)C(=O)N[C@@H](CC(C)C)C(=O)N[C@@H](CC(C)C)C(=O)N[C@@H](C)C(=O)NCC(=O)NCC(=O)N1CCC[C@H]1C(=O)N[C@@H](CO)C(=O)N[C@@H](CO)C(=O)NCC(=O)N[C@@H](C)C(=O)N1CCC[C@H]1C(=O)N1CCC[C@H]1C(=O)N1CCC[C@H]1C(=O)N[C@@H](CO)C(=O)N[C@@H](CCCCN)C(N)=O)C(C)C` [Compound 130], for which the EC50 in test [1] (setting [4]) is greater than 1000 nM; in test [2] (setting [5]) it was 0.1 to 1 nM; in test [2] (setting [6]), 0.1 to 1 nM; in test [3] (setting [7]), 1 to 10 nM; in test [3] (setting [8]) it was 1 to 10 nM. The Emax turned out to be 114% in test [2] (Table 3), 114% in test [2] (Table 3A), 64% in test [3] (Table 3) and 64% in test [3] (Table 3A).

Consider `CCCCCCCCCCCCCCCC(=O)N[C@@H](CCC(=O)NCCCC[C@H](NC(=O)[C@H](CO)NC(=O)[C@@H]1CCCN1C(=O)[C@@H]1CCCN1C(=O)[C@@H]1CCCN1C(=O)[C@H](C)NC(=O)CNC(=O)[C@H](CO)NC(=O)[C@H](CO)NC(=O)[C@@H]1CCCN1C(=O)CNC(=O)CNC(=O)[C@H](C)NC(=O)[C@H](CC(C)C)NC(=O)[C@H](CC(C)C)NC(=O)[C@H](Cc1c[nH]c2ccccc12)NC(=O)[C@H](CC(N)=O)NC(=O)[C@@H](NC(=O)[C@H](Cc1ccccc1)NC(=O)[C@H](CCC(=O)O)NC(=O)C(C)(C)NC(=O)[C@H](C)NC(=O)[C@H](C)NC(=O)[C@H](CCC(N)=O)NC(=O)[C@H](CCCCN)NC(=O)[C@H](CC(=O)O)NC(=O)[C@H](CC(C)C)NC(=O)[C@H](Cc1ccc(O)cc1)NC(=O)[C@@H](NC(=O)[C@H](CO)NC(=O)[C@H](Cc1ccc(O)cc1)NC(=O)[C@H](CC(=O)O)NC(=O)[C@H](CO)NC(=O)[C@@H](NC(=O)[C@H](Cc1ccccc1)NC(=O)[C@@H](NC(=O)CNC(=O)[C@H](CCC(=O)O)NC(=O)[C@H](C)NC(=O)CCN1CCCCC1=O)[C@@H](C)O)[C@@H](C)O)[C@@H](C)CC)C(C)C)C(N)=O)C(=O)O` [Compound 212], for which the EC50 was 10 to 1000 nM in test [1] (setting [4]), less than 0.1 nM in test [2] (setting [6]) and 1 to 10 nM in test [3] (setting [8]). Besides, the maximum response (Emax) in test [2] (Table 3A) came out at 90%; in test [3] (Table 3A) it was 50%.

With `CC[C@H](C)[C@H](NC(=O)[C@H](CO)NC(=O)[C@H](Cc1ccc(O)cc1)NC(=O)[C@H](CC(=O)O)NC(=O)[C@H](CO)NC(=O)[C@@H](NC(=O)[C@H](Cc1ccccc1)NC(=O)[C@@H](NC(=O)CNC(=O)[C@H](CCC(=O)O)NC(=O)C(C)(C)C(=O)NC)[C@@H](C)O)[C@@H](C)O)C(=O)N[C@@H](Cc1ccc(O)cc1)C(=O)N[C@@H](CC(C)C)C(=O)N[C@@H](CC(=O)O)C(=O)N[C@@H](CCCCN)C(=O)N[C@@H](CCC(N)=O)C(=O)N[C@@H](C)C(=O)N[C@@H](C)C(=O)NC(C)(C)C(=O)N[C@@H](CCC(=O)O)C(=O)N[C@@H](Cc1ccccc1)C(=O)N[C@H](C(=O)N[C@@H](CC(N)=O)C(=O)N[C@@H](Cc1c[nH]c2ccccc12)C(=O)N[C@@H](CC(C)C)C(=O)N[C@@H](CC(C)C)C(=O)N[C@@H](C)C(=O)NCC(=O)NCC(=O)N1CCC[C@H]1C(=O)N[C@@H](CO)C(=O)N[C@@H](CO)C(=O)NCC(=O)N[C@@H](C)C(=O)N1CCC[C@H]1C(=O)N1CCC[C@H]1C(=O)N1CCC[C@H]1C(=O)N[C@@H](CO)C(=O)N[C@@H](CCCCN)C(N)=O)C(C)C` [Compound 142], the EC50 in test [1] (setting [4]) was 10 to 1000 nM; in test [2] (setting [5]), less than 0.1 nM; in test [2] (setting [6]), less than 0.1 nM; in test [3] (setting [7]) it was 10 to 100 nM; in test [3] (setting [8]), 100 to 1000 nM. Also, the Emax lay within 101 to 105% in test [2] (Table 3), 101 to 105% in test [2] (Table 3A), 14.2 to 17% in test [3] (Table 3) and 14.2 to 17% in test [3] (Table 3A).
